Test results published in BindingDB's records for doi:10.1016/j.bmcl.2010.09.092 (University of New Mexico School of Medicine, 2010).
pEC50: −log10 of the molar value.

Test: Inhibition of human alphaVbeta3 receptor expressed in african green monkey Vero E6 cells assessed as inhibition of SNV infection in cells by immunofluorescent assay

| Compound | pEC50 |
| --- | --- |
| O=c1c(C=NCc2ccco2)c(CSc2ccc(Cl)cc2)[nH]n1-c1nc2ccccc2s1 [2-(benzo[d]thiazol-2-yl)-5-((4-chlorophenylthio)methyl)-4-((furan-2-ylmethylimino)methyl)-1H-pyrazol-3(2H)-one] | 8.89 |
| O=C(NCc1ccc2c(c1)OCO2)C(Cc1ccccc1)NS(=O)(=O)c1cccc2cccnc12 (racemic) [rac-N-(benzo[d][1,3]dioxol-5-ylmethyl)-3-phenyl-2-(quinoline-8-sulfonamido)propanamide] | 8.80 |
| O=C(NCc1cccs1)C(Cc1ccccc1)NS(=O)(=O)c1ccc2nsnc2c1 (racemic) [rac-2-(benzo[c][1,2,5]thiadiazole-5-sulfonamido)-3-phenyl-N-(thiophen-2-ylmethyl)propanamide] | 8.60 |
